The test system of the test is T1, scalarin (PsSC).
T1 construct: native, purified from newly laid egg clutches (ultracentrifugation, size exclusion); 380 kDa glycosylated carotenoprotein oligomer of 35, 28 and 24 kDa subunits
Put plainly: inhibition of rabbit erythrocyte hemagglutination (titre). In kind it is cell-based, Pomacea scalaris. Particulars: 200000 µM, TBS pH 7.4, 37 °C, 1 h preincubation, 2% rabbit erythrocytes. An excerpt: inhibition of rabbit erythrocyte hemagglutination (titre) on scalarin (PsSC)

A word on the % Inhibition: it is the relative decrease from the control value, in per cent. A low value points to a weak effect.

`N[C@H]1C(O)O[C@H](CO)[C@@H](O)[C@@H]1O` (stereo partly drawn) [glucosamine]: the “% Inhibition” value is 99.6%.

As for `N[C@H]1C(O)O[C@H](CO)[C@H](O)[C@@H]1O` (stereo partly drawn) [galactosamine], the “% Inhibition” value (text prints 99.99%) is recorded as 99.9%.

Consider `CC(=O)N[C@H]1C(O)O[C@H](CO)[C@H](O)[C@@H]1O` (stereo partly drawn) [N-acetyl-D-galactosamine], for which the “% Inhibition” value was found to be 50.0%.

The record behind these values is PMC3502340, “Agglutinating Activity and Structural Characterization of Scalarin, the Major Egg Protein of the Snail Pomacea scalaris (d’Orbigny, 1832)” (PLoS ONE, 2012).
